Assay results taken from patent US10711002B2, “Purine compounds and method for the treatment of cancer” (THE ROYAL INSTITUTION FOR THE ADVANCEMENT OF …, priority 2016, dated 2020).

Biological target: AURKB (Aurora B) (Homo sapiens, UniProt Q96GD4)
Experiment: High-throughput kinase assay
Assay type: biochemical
Settings: 100 nM; read-out: Percent inhibition of kinase activity in vitro, AURKB (Aurora B)
Protocol: (§1) Screening of Compounds 1-4 against several kinases identified two prominent targets of these compounds as the Aurora A kinase and calcium dependent protein kinase C isoforms α, βI, βII and […] (Tables 1 to 3). IC50s for these two targets were obtained by plotting inhibition levels at 500 nM, 100 nM, 50 nM and 10 nM (FIG. 3). These kinases are directly involved in pathways controlling cell differentiation programs, metastasis signaling, as well as EMT and CSC programming and their overexpression was reported to predict decreased metastasis-free survival.

AURKB (Aurora B), sequence (Q96GD4 whole entry): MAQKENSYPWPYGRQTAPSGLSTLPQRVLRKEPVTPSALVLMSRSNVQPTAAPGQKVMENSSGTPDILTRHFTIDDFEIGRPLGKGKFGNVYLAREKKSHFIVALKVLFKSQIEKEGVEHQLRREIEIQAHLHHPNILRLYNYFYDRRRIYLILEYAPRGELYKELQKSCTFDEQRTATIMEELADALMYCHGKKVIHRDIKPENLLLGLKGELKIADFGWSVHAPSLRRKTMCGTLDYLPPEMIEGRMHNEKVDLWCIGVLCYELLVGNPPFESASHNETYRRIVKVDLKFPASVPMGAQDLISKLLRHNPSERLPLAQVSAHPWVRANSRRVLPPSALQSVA

SMILES | inhibition at 0.1 µM
O=c1c2ccccc2[se]n1-c1nc(N[C@H]2CC[Se]C2)c2nc[nH]c2n1 [Compound 4] | 14%
O=c1c2ccccc2[se]n1-c1nc(NC2CCCCC2)c2nc[nH]c2n1 [Compound 1] | 12%
O=c1c2ccccc2[se]n1-c1nc(NC2CC[Se]C2)c2nc[nH]c2n1 (stereo not shown) [Compound 2] | 19%
O=C1c2ccccc2CN1c1nc(NC2CCCCC2)c2nc[nH]c2n1 [SLLN-6C, reference compound] | 10%
C[C@@H]1C(Nc2nc(-n3[se]c4ccccc4c3=O)nc3[nH]cnc23)C[C@H]2C[C@@H]1C2(C)C (stereo partly shown) [Compound 3] | 24%

Same assay, conditions: 500 nM; read-out: Percent inhibition of kinase activity in vitro, AURKB (Aurora B)

SMILES | inhibition at 0.5 µM
O=c1c2ccccc2[se]n1-c1nc(NC2CCCCC2)c2nc[nH]c2n1 [Compound 1] | 25%
O=c1c2ccccc2[se]n1-c1nc(NC2CC[Se]C2)c2nc[nH]c2n1 (stereo not shown) [Compound 2] | 13%
C[C@@H]1C(Nc2nc(-n3[se]c4ccccc4c3=O)nc3[nH]cnc23)C[C@H]2C[C@@H]1C2(C)C (stereo partly shown) [Compound 3] | 19%

Biological target: T1, AURKC (Aurora C) (Homo sapiens, UniProt Q9UQB9)
T1 sequence (Q9UQB9 1-309): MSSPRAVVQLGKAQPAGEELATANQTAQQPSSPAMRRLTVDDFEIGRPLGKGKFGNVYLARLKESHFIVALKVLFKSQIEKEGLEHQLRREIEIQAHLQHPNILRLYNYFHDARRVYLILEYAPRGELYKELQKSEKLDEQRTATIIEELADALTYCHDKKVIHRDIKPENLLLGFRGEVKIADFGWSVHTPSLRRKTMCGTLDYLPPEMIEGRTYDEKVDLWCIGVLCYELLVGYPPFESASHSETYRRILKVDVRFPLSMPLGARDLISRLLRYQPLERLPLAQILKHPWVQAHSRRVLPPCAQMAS
Experiment: High-throughput kinase assay
Assay type: biochemical
Settings: 100 nM; read-out: Percent inhibition of kinase activity in vitro, AURKC (Aurora C)
Protocol: as §1

SMILES | inhibition at 0.1 µM
O=c1c2ccccc2[se]n1-c1nc(N[C@H]2CC[Se]C2)c2nc[nH]c2n1 [Compound 4] | 0%
O=c1c2ccccc2[se]n1-c1nc(NC2CCCCC2)c2nc[nH]c2n1 [Compound 1] | 2%
O=c1c2ccccc2[se]n1-c1nc(NC2CC[Se]C2)c2nc[nH]c2n1 (stereo not shown) [Compound 2] | 0%
O=C1c2ccccc2CN1c1nc(NC2CCCCC2)c2nc[nH]c2n1 [SLLN-6C, reference compound] | 0%
C[C@@H]1C(Nc2nc(-n3[se]c4ccccc4c3=O)nc3[nH]cnc23)C[C@H]2C[C@@H]1C2(C)C (stereo partly shown) [Compound 3] | 0%

Same assay, conditions: 500 nM; read-out: Percent inhibition of kinase activity in vitro, AURKC (Aurora C)

SMILES | inhibition at 0.5 µM
O=c1c2ccccc2[se]n1-c1nc(NC2CCCCC2)c2nc[nH]c2n1 [Compound 1] | 10%
O=c1c2ccccc2[se]n1-c1nc(NC2CC[Se]C2)c2nc[nH]c2n1 (stereo not shown) [Compound 2] | 11%
C[C@@H]1C(Nc2nc(-n3[se]c4ccccc4c3=O)nc3[nH]cnc23)C[C@H]2C[C@@H]1C2(C)C (stereo partly shown) [Compound 3] | 7%

Biological target: BRAF-ZLYTE-100 (Homo sapiens, UniProt P15056)
Sequence (P15056 whole entry): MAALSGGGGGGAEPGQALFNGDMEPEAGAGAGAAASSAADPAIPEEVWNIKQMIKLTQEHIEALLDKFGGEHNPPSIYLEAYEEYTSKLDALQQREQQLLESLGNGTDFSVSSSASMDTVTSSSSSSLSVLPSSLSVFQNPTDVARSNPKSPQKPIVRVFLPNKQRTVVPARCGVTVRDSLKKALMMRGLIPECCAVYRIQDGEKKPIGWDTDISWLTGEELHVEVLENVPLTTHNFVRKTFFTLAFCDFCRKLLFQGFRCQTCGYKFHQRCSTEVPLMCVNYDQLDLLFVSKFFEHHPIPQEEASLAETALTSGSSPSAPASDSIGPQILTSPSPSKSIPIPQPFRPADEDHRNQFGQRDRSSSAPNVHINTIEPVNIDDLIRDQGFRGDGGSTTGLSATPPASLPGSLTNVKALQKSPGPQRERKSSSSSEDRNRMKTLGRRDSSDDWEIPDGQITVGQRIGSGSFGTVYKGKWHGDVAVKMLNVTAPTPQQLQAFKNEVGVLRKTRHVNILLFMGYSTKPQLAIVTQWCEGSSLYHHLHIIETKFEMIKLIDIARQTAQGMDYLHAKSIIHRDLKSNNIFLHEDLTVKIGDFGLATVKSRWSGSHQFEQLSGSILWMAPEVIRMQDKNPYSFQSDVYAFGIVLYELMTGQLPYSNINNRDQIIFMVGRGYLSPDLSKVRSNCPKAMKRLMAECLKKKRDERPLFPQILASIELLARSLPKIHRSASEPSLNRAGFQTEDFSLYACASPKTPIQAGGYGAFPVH
Experiment: High-throughput kinase assay
Assay type: biochemical
Settings: 100 nM; read-out: Percent inhibition of kinase activity in vitro, BRAF-ZLYTE-100
Protocol: as §1

SMILES | inhibition at 0.1 µM
O=c1c2ccccc2[se]n1-c1nc(N[C@H]2CC[Se]C2)c2nc[nH]c2n1 [Compound 4] | 0%
O=c1c2ccccc2[se]n1-c1nc(NC2CCCCC2)c2nc[nH]c2n1 [Compound 1] | 1%
O=c1c2ccccc2[se]n1-c1nc(NC2CC[Se]C2)c2nc[nH]c2n1 (stereo not shown) [Compound 2] | 0%
O=C1c2ccccc2CN1c1nc(NC2CCCCC2)c2nc[nH]c2n1 [SLLN-6C, reference compound] | 1%
C[C@@H]1C(Nc2nc(-n3[se]c4ccccc4c3=O)nc3[nH]cnc23)C[C@H]2C[C@@H]1C2(C)C (stereo partly shown) [Compound 3] | 0%

Biological target: ERBB2 (HER2) (Homo sapiens, UniProt P04626)
Sequence (P04626 23-1255): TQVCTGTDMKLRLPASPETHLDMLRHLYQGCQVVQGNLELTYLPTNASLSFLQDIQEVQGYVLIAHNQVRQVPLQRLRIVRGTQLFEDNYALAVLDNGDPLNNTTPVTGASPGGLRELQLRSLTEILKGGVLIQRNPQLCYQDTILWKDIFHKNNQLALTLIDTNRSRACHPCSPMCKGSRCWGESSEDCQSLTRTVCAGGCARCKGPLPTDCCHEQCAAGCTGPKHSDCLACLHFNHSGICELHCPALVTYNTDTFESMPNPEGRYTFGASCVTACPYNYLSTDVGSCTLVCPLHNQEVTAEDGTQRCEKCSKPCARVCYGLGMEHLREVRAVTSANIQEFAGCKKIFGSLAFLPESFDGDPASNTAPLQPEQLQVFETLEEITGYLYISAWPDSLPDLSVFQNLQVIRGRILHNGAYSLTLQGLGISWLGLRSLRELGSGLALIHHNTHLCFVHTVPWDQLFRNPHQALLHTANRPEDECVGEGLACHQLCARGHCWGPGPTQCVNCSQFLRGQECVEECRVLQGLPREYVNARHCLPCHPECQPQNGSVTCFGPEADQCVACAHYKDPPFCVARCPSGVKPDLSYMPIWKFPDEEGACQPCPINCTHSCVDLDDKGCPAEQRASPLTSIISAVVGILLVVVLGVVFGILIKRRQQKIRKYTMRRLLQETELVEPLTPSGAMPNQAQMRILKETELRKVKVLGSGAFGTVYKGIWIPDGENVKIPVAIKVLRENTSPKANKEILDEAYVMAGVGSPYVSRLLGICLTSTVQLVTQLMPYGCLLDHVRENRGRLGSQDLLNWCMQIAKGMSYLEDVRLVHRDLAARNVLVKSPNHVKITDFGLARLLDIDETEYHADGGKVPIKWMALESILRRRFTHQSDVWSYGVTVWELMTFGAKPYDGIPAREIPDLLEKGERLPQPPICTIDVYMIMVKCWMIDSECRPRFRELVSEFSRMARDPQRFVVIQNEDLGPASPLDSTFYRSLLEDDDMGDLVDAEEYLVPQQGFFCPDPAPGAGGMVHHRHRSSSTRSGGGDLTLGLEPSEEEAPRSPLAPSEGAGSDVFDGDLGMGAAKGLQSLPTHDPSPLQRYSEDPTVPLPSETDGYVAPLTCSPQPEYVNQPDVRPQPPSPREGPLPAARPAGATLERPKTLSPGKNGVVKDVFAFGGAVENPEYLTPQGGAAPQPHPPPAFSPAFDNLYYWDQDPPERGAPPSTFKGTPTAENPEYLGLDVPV
Experiment: High-throughput kinase assay
Assay type: biochemical
Settings: 500 nM; read-out: Percent inhibition of kinase activity in vitro, ERBB2 (HER2)
Protocol: as §1

SMILES | inhibition at 0.5 µM
O=c1c2ccccc2[se]n1-c1nc(NC2CCCCC2)c2nc[nH]c2n1 [Compound 1] | 0%
O=c1c2ccccc2[se]n1-c1nc(NC2CC[Se]C2)c2nc[nH]c2n1 (stereo not shown) [Compound 2] | 0%
C[C@@H]1C(Nc2nc(-n3[se]c4ccccc4c3=O)nc3[nH]cnc23)C[C@H]2C[C@@H]1C2(C)C (stereo partly shown) [Compound 3] | 2%

Biological target: PRKCB1 (PKC beta I) (Homo sapiens, UniProt P05771)
Sequence (P05771 whole entry): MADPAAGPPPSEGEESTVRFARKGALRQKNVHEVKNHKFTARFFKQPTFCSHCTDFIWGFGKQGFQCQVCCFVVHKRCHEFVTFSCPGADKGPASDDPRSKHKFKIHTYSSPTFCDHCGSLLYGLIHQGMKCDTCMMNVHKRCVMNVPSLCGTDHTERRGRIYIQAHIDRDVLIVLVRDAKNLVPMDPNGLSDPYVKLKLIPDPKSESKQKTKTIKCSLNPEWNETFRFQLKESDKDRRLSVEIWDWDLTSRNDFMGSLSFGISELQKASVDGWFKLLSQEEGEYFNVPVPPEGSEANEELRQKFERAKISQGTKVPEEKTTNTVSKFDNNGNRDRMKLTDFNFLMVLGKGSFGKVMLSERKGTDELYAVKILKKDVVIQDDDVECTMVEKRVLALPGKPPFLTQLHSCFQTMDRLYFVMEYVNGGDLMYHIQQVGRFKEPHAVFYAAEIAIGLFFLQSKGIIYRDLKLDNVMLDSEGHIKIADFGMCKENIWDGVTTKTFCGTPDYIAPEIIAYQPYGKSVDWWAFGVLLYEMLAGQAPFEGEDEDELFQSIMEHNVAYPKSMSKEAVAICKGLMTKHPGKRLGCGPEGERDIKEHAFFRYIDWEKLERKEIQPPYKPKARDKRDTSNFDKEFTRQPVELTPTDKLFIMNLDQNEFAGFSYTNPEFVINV
Experiment: High-throughput kinase assay
Assay type: biochemical
Settings: 50 nM; read-out: Percent inhibition of kinase activity in vitro, PRKCB1 (PKC beta I)
Protocol: as §1

SMILES | inhibition at 0.05 µM
O=c1c2ccccc2[se]n1-c1nc(N[C@H]2CC[Se]C2)c2nc[nH]c2n1 [Compound 4] | 95%
O=c1c2ccccc2[se]n1-c1nc(NC2CCCCC2)c2nc[nH]c2n1 [Compound 1] | 59%
O=C1c2ccccc2CN1c1nc(NC2CCCCC2)c2nc[nH]c2n1 [SLLN-6C, reference compound] | 5%

Biological target: PRKCB2 (PKC beta II) (Homo sapiens, UniProt P05771)
Sequence (P05771 1-673 isoform P05771-2): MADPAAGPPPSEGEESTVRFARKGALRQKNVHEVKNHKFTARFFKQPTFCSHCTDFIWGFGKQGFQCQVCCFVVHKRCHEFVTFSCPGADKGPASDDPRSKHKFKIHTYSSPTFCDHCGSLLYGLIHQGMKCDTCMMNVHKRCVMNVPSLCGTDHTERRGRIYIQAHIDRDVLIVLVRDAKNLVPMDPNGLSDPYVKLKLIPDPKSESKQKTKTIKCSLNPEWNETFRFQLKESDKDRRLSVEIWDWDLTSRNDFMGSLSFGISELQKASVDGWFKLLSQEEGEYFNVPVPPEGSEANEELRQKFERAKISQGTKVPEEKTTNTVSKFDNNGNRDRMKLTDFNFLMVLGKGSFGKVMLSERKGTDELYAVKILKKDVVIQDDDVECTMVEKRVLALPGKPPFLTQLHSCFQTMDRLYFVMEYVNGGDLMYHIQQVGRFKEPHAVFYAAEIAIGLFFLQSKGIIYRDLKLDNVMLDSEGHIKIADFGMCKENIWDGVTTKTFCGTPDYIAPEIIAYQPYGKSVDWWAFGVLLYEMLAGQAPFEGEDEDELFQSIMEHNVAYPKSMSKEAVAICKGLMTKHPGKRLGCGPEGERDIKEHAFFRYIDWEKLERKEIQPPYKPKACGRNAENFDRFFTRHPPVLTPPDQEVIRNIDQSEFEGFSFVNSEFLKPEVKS
Experiment: High-throughput kinase assay
Assay type: biochemical
Settings: 50 nM; read-out: Percent inhibition of kinase activity in vitro, PRKCB2 (PKC beta II)
Protocol: as §1

SMILES | inhibition at 0.05 µM
O=c1c2ccccc2[se]n1-c1nc(N[C@H]2CC[Se]C2)c2nc[nH]c2n1 [Compound 4] | 95%
O=c1c2ccccc2[se]n1-c1nc(NC2CCCCC2)c2nc[nH]c2n1 [Compound 1] | 62%
O=C1c2ccccc2CN1c1nc(NC2CCCCC2)c2nc[nH]c2n1 [SLLN-6C, reference compound] | 5%

Biological target: PRKCG (PKC gamma) (Homo sapiens, UniProt P05129)
Experiment: High-throughput kinase assay
Assay type: biochemical
Settings: 50 nM; read-out: Percent inhibition of kinase activity in vitro, PRKCG (PKC gamma)
Protocol: as §1

SMILES | inhibition at 0.05 µM
O=c1c2ccccc2[se]n1-c1nc(N[C@H]2CC[Se]C2)c2nc[nH]c2n1 [Compound 4] | 47%
O=c1c2ccccc2[se]n1-c1nc(NC2CCCCC2)c2nc[nH]c2n1 [Compound 1] | 45%
O=C1c2ccccc2CN1c1nc(NC2CCCCC2)c2nc[nH]c2n1 [SLLN-6C, reference compound] | 0%

Biological target: T2, PRKCI (PKC iota) (Homo sapiens, UniProt P41743)
T2 sequence (P41743 1-596): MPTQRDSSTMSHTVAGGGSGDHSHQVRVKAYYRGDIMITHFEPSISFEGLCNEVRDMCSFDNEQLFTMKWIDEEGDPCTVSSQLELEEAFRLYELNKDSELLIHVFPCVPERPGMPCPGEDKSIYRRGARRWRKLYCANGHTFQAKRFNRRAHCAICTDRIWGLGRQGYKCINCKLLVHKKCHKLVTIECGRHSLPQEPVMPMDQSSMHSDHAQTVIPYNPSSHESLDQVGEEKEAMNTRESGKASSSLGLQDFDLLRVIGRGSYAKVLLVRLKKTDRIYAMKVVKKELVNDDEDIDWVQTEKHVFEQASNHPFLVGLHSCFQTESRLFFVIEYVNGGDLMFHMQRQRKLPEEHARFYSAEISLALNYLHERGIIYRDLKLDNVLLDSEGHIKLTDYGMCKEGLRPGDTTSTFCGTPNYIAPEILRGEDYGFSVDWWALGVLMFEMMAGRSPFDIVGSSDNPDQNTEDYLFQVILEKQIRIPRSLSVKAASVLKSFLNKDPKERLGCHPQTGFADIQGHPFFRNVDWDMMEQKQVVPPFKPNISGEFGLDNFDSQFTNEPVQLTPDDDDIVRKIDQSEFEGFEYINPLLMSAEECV
Experiment: High-throughput kinase assay
Assay type: biochemical
Settings: 50 nM; read-out: Percent inhibition of kinase activity in vitro, PRKCI (PKC iota)
Protocol: as §1

SMILES | inhibition at 0.05 µM
O=c1c2ccccc2[se]n1-c1nc(N[C@H]2CC[Se]C2)c2nc[nH]c2n1 [Compound 4] | 7%
O=c1c2ccccc2[se]n1-c1nc(NC2CCCCC2)c2nc[nH]c2n1 [Compound 1] | 4%
O=C1c2ccccc2CN1c1nc(NC2CCCCC2)c2nc[nH]c2n1 [SLLN-6C, reference compound] | 7%

Biological target: SYK (Homo sapiens, UniProt P43405)
Experiment: High-throughput kinase assay
Assay type: biochemical
Settings: 100 nM; read-out: Percent inhibition of kinase activity in vitro, SYK
Protocol: as §1

SMILES | inhibition at 0.1 µM
O=c1c2ccccc2[se]n1-c1nc(N[C@H]2CC[Se]C2)c2nc[nH]c2n1 [Compound 4] | 6%
O=c1c2ccccc2[se]n1-c1nc(NC2CCCCC2)c2nc[nH]c2n1 [Compound 1] | 6%
O=c1c2ccccc2[se]n1-c1nc(NC2CC[Se]C2)c2nc[nH]c2n1 (stereo not shown) [Compound 2] | 2%
O=C1c2ccccc2CN1c1nc(NC2CCCCC2)c2nc[nH]c2n1 [SLLN-6C, reference compound] | 2%
C[C@@H]1C(Nc2nc(-n3[se]c4ccccc4c3=O)nc3[nH]cnc23)C[C@H]2C[C@@H]1C2(C)C (stereo partly shown) [Compound 3] | 0%

Same assay, conditions: 500 nM; read-out: Percent inhibition of kinase activity in vitro, SYK

SMILES | inhibition at 0.5 µM
O=c1c2ccccc2[se]n1-c1nc(NC2CCCCC2)c2nc[nH]c2n1 [Compound 1] | 8%
O=c1c2ccccc2[se]n1-c1nc(NC2CC[Se]C2)c2nc[nH]c2n1 (stereo not shown) [Compound 2] | 9%
C[C@@H]1C(Nc2nc(-n3[se]c4ccccc4c3=O)nc3[nH]cnc23)C[C@H]2C[C@@H]1C2(C)C (stereo partly shown) [Compound 3] | 24%

Biological target: T3, TGFBR1 (ALK5) (Homo sapiens, UniProt P36897)
T3 sequence (P36897 34-503): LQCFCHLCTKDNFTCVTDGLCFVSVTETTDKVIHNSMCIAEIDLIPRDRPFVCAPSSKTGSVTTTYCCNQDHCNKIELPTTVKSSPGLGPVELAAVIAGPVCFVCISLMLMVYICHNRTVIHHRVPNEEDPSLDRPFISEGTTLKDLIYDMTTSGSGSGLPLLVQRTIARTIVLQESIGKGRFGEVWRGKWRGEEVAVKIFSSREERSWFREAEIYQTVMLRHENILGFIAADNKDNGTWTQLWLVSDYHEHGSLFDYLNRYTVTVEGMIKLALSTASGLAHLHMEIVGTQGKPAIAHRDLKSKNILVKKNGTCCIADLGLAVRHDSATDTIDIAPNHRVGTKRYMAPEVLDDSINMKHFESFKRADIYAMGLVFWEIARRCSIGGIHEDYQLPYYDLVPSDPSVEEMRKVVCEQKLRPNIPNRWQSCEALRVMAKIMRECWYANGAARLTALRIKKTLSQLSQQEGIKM
Experiment: High-throughput kinase assay
Assay type: biochemical
Settings: 100 nM; read-out: Percent inhibition of kinase activity in vitro, TGFBR1 (ALK5)
Protocol: as §1

SMILES | inhibition at 0.1 µM
O=c1c2ccccc2[se]n1-c1nc(N[C@H]2CC[Se]C2)c2nc[nH]c2n1 [Compound 4] | 0%
O=c1c2ccccc2[se]n1-c1nc(NC2CCCCC2)c2nc[nH]c2n1 [Compound 1] | 0%
O=c1c2ccccc2[se]n1-c1nc(NC2CC[Se]C2)c2nc[nH]c2n1 (stereo not shown) [Compound 2] | 0%
O=C1c2ccccc2CN1c1nc(NC2CCCCC2)c2nc[nH]c2n1 [SLLN-6C, reference compound] | 0%
C[C@@H]1C(Nc2nc(-n3[se]c4ccccc4c3=O)nc3[nH]cnc23)C[C@H]2C[C@@H]1C2(C)C (stereo partly shown) [Compound 3] | 3%

Same assay, conditions: 500 nM; read-out: Percent inhibition of kinase activity in vitro, TGFBR1 (ALK5)

SMILES | inhibition at 0.5 µM
O=c1c2ccccc2[se]n1-c1nc(NC2CCCCC2)c2nc[nH]c2n1 [Compound 1] | 0%
O=c1c2ccccc2[se]n1-c1nc(NC2CC[Se]C2)c2nc[nH]c2n1 (stereo not shown) [Compound 2] | 0%
C[C@@H]1C(Nc2nc(-n3[se]c4ccccc4c3=O)nc3[nH]cnc23)C[C@H]2C[C@@H]1C2(C)C (stereo partly shown) [Compound 3] | 0%
